Data as given in US20080194020A1, “Methods For Producing Dendritic Cells That Have Acquired Ctl-Inducing Ability” (Medical and Biological Laboratories Co., Ltd., priority 2004, published 2008).
Entries after “also recorded” stand apart in the source; their conditions may differ.

Tests used:
Format in all cases: cell-based, mouse
[1] = test system: bone marrow-derived dendritic cells (BMDCs); assay: MHC class II antigen presentation by BMDCs to OT-II CD4+ T cells (IL-2 ELISA); details: HSP90 10 μg/mL added at the same time as OVA (0, 50 or 250 μg/mL)
Experimental: Mouse bone marrow-derived dendritic cells (BMDCs) were prepared as follows: cells were taken out from mouse bone marrow and cultured for five days in RPMI medium containing GM-CSF and 5% FCS, during which the medium was partially exchange. This culturing method leads to growth of macrophages, dendritic cells, and such; therefore, dendritic cells alone were collected using CD11c magnetic beads, and these cells were used as bone marrow-derived dendritic cells (BMDCs).
The bone marrow-derived dendritic cells (BMDCs) prepared as above or the mouse dendritic cell line DC2.4 cells were plated in a 96-well plate at 5×10^4 cells per well. Next, in the presence of 50 μg/mL of polynyxin B, which is an endotoxin inhibitor, OVA (0, 50, or 250 μg/mL)and HSP90 (0 or 10 μg/mL) were added, the total fluid volume was adjusted to 200 μL, and this was cultured overnight at 37° C. Since endotoxin is known to activate DCs, polymyxin B was added to eliminate the effects of its contamination of reagents, equipment, and such. After culturing, the aforementioned cells in the wells were washed twice to remove the remaining OVA and HSP90 that were not taken up by the cells. […] The wells were centrifuged, the supernatant was collected, and the amount of IL-2 in the supernatant was measured by ELISA.

BMDCs = assay: MHC class I antigen presentation by BMDCs to OT-I CD8+ cells; details: BMDCs incubated with OVA in the presence or absence of HSP90
DC2.4 cells [2] = assay: Polyubiquitination of antigenic protein taken up by DC2.4 cells (SDS-PAGE, Western blot with anti-polyubiquitin antibody); details: DC2.4 cells incubated with GST-OVA in the presence or absence of Hsp90
Experimental: There are reports that when the KDEL sequence (Lys-Asp-Glu-Leu) (SEQ ID NO: 3), an endoplasmic reticulum localization sequence, is added to the carboxyl terminus of a protein localized in the ER lumen, the protein is repeatedly transported between the ER and Golgi apparatus, and ERAD of that protein is promoted. Therefore, DC2.4 cells were made to take up OVA with KDEL (SEQ ID NO: 3) added to its C-terminus, and OVA that was polyubiquitinated after uptake was observed by SDS-PAGE and Western blotting. OVA to which a KDEL sequence (SEQ ID NO: 3) was added was constructed and expressed as follows: using a plasmid comprising a DNA sequence encoding OVA as a template, PCR was performed using oligo-1 (SEQ ID NO: 10) and oligo-2 (SEQ ID NO: 11) as primers. The amplified PCR product of approximately 1100 bp was introduced into a pCR-Blunt vector (Invitrogen) to obtain vector-1. Oligo-3 (SEQ ID NO: 12) and oligo-4 (SEQ ID NO: 13) were annealed, and the obtained gene fragment of approximately 100 bp was introduced into the pCR-Blunt vector to obtain vector-2. Vector-2 was digested with SpeI, the obtained gene fragment of approximately 130 bp was introduced into vector-1 that had been digested with NheI to obtain vector-3. An approximately 1250-bp gene fragment (OVA-KDEL) obtained when vector-3 was digested with BamHI/SpeI was introduced into a vector for gene expression, and then expressed. […]

DC2.4 cells [3] = assay: Uptake of antigenic protein into DC2.4 cells
Experimental: Next, DC2.4 cells were incubated for a set amount of time with OVA in the presence or absence of lactacystin (LC), and OVA taken up into the cells was measured. OVA taken up into cells in the presence or absence of Hsp90 was measured similarly.

DC2.4 cells [4] = assay: MHC class I cross-presentation by DC2.4 cells to OT-I CD8+ T cells (IL-2 ELISA)
Text: Whether knock-down of cellular components involved in ERAD decreases the cross-presentation of exogenous OVA antigen was examined using a system for evaluating the level of antigen presentation, which uses naive CD8^+ T cells from OT-I mice and DC2.4 cells. The DC2.4 cells used as a model of dendritic cells are of the H-2Kb mouse MHC class I haplotype. OT-I (H-2Kb) mice are transgenic mice expressing a T cell receptor (TCRα and β) that recognizes an antigenic peptide (SIINFEKL) (SEQ ID NO: 15) derived from OVA presented on the H-2Kb molecules. The CD8^+ cells of OT-I mice are activated when they recognize OVA peptides presented by BMDCs derived from H-2Kb mice or by DC2.4 cells. When OVA or bOVA is incubated with and affixed onto DC2.4 cells and the cells are further incubated with naive CD8^+ T cells of OT-I mice, the amount of IL-2 produced by OT-I CD8^+ T cells serves as an index of T-cell stimulation as a result of OVA antigen presented by DC2.4 cells.
Parental or knocked-down DC2.4 cells were pre-incubated in a culture medium supplemented with 50 μg mL^−1 polymyxin B for 30 minutes in the presence or absence of lactacystin or MG-132, and incubated with OVA (250 μg mL^−1) or SIINFEKL peptides (10 ng mL^−1) for six hours. The cells were washed, fixed with 1% paraformaldehyde, and aliquoted into microtiter plates (5×10^4 per well). 5×10^4 CD8^+ T cells purified from splenocytes of OT-1 mice using magnetic beads were added to each well and after a 24-hour incubation, the IL-2 secretion was measured by ELISA (BD Biosciences) in triplicate.
DC2.4 cells were incubated with OVA (0, 50, or 250 μg/mL) in RPMI1640/10c% FCS for six hours at 37° C., in the presence or absence of pig-derived HSP90 (10 μg/mL). After washing away the antigen and HSP, OT-I CD8^+ T cells were added, cells were cultured overnight at 37° C., and the amount of IL-2 comprised in the supernatant was measured by the ELISA method.
The timing of the addition of HSP90 (10 μg/mL) and OVA (250 μg/mL) to DC2.4 cells was varied, and the effect on class I antigen presentation was observed. (i) HSP90 was added first, DC2.4 cells were washed, and then OVA was added. (ii) HSP90 and OVA were added simultaneously to DC2.4 cells. (iii) OVA was added first, and after washing DC2.4 cells, HSP90 was added. The results obtained under these three conditions were compared. As a control for all these conditions, an experiment in which only OVA, but not HSP90, was added was also carried out.
Under condition (i), HSP90 was added to DC2.4 cells, the cells were cultured for 30 minutes and then washed to remove HSP90. Next, OVA was added and the cells were cultured for three hours. Thereafter, OVA was removed by washing, and cells were cultured in just the culture medium for three hours. DC2.4 cells activated with OVA by the above procedure were plated in a 96-well plate, OT-I mouse-derived CD8^+ T cells were added to this, and after culturing overnight, the amount of IL-2 released into the supernatant was measured by ELISA.
Under condition (ii), OVA and HSP90 were added simultaneously to DC2.4 cells, cells were cultured for three hours, then washed, and cultured in just the culture medium for three hours. Thereafter, the procedures to investigate the activation of OT-I mouse-derived CD8^+ T cells was carried out similarly to in (i) above.
Under condition (iii), OVA was first added to DC2.4 cells, cells were cultured for three hours, and then washed to remove OVA. Next, HSP90 was added, and the cells were cultured for another three hours. The procedures that follow were carried out similarly to that of (i) and (ii). Meanwhile, timings were set such that the incubation times during the stage in which cells are in contact with OVA and the stage at which OVA has been taken up were the same under conditions (i) to (iii).

HSP90: pig-derived HSP90, molecular chaperone (heat shock protein) of about 90 kDa; porcine sequence SEQ ID NO: 1
effect on IL-2 production by OT-II CD4+ T cells (MHC class II presentation) [1]: not enhanced | effect on OVA antigen presentation to OT-I CD8+ cells (BMDCs): increase antigen presentation | effect on polyubiquitination of GST-OVA taken up (DC2.4 cells [2]): the increase in polyubiquitination in the presence of HSP90 is very pronounced | effect on polyubiquitination of GST-OVA taken up (DC2.4 cells [2]; listed as Hsp90): more strongly polyubiquitinated | effect on OVA taken up into cells (DC2.4 cells [3]; DC2.4 cells incubated with OVA in the presence or absence of Hsp90 and lactacystin): take up OVA into cells more efficiently; also recorded: uptake of OVA increased | effect on amount of GST-OVA taken up (DC2.4 cells [3]; FIG. 10 lane 4 versus lane 3, presence or absence of HSP90): the increase in the amount taken up in the presence of HSP90 is not great | effect on OVA antigen presentation to OT-I CD8+ T cells (IL-2) (DC2.4 cells [4]; DC2.4 cells, OVA 0, 50 or 250 μg/mL, six hours, pig-derived HSP90 10 μg/mL versus OVA alone): a stronger antigen presentation was observed; also recorded: increase antigen presentation | Hsp90 concentration dependence of antigen presentation ability (DC2.4 cells [4]; DC2.4 cells, Hsp90 10 μg/mL and 50 μg/mL): increased in an Hsp90 concentration-dependent manner; also recorded: antigen-presenting ability increases in a manner dependent on Hsp90 concentration | effect on IL-2 production versus OVA-only control (DC2.4 cells [4]; condition (i): HSP90 added first, cells washed, then OVA): cannot be observed unless it is added simultaneously | effect on IL-2 production versus OVA-only control (DC2.4 cells [4]; condition (ii): HSP90 10 μg/mL and OVA 250 μg/mL added simultaneously to DC2.4 cells): increase in the amount of IL-2 production | effect on IL-2 production versus OVA-only control (DC2.4 cells [4]; condition (iii): OVA added first, cells washed, then HSP90): not to yield any effect
